What all share (format): ADME, organism-based
A short description of data set [1]: Apparent half life in human at 11.5 to 42 mg/m'-2, iv dosed as 30 mins infusion by LC-MS/MS analysis. The following applies: in vivo, read-out: t1/2(app).
Data set [2] is described as follows: Drug excretion in iv dosed human urine assessed as unchanged compound administered as 30 mins infusion after 24 hrs by LC-MS/MS analysis. The following applies: read-out: Drug excretion.
The nature of data set [3]: Tmax in human at 250 mg, po qd regimen measured on day 7 post dose by LC-MS analysis. The following applies: in vivo.

Turning to `COc1ccc(/C=C\c2cc(OC)c(OC)c(OC)c2)cc1NC(=O)[C@@H](N)CO` [OMBRABULIN], the half-life in data set [1] worked out at 12 min. With `COc1cc(C(=O)c2ccc(-c3csc(NC(=O)[C@@H](N)C(C)C)n3)cc2-n2cncn2)cc(OC)c1OC`, the dose excreted at 24 h in data set [2] is less than 1%. Take `COc1ccc(S(=O)(=O)Nc2cccnc2Nc2ccc(O)cc2)cc1` [ABT-751]: the Tmax in data set [3] was found to be 120 min.

As usually defined, the Tmax is the time from dosing to the highest level.

These data come from ChEMBL document CHEMBL3853312, “Blocking Blood Flow to Solid Tumors by Destabilizing Tubulin: An Approach to Targeting Tumor Growth” (J Med Chem, 2016).
